System: MT-1 breast cancer cells
Test: Symptom free survival of nude rats inoculated with MT-1 breast cancer cells (treatment efficacy against skeletal metastases)
Format: in vivo, nude rats (Han: rnu/rnu Rowett)
Details: for increase in survival relative to the control: Wilcoxon rank sum test
[1] = Without Aredia, 300 kBq/ka ^223Ra (regimen A)

Protocol: The effect of ^223Ra in prolonging symptom free survival of rate was studied for two treatment regimens [A] comparative and [B] according to the invention.
Treatment regimen [A]: Animals were treated seven days after tumor cell inoculation. At this time animal body weights varied between 80 and 110 grams and animals were randomized in groups so the average weight for a group was about 100 g at the time of treatment. The treatment groups received 11 or 30 kBq of ^223Ra administered by tail vein injection while animals in the control group were injected with an equivalent volume of 5 mM sodium citrate solution.
Treatment regimen [B]: 3-Amino-1-hydroxypropylidene bisphosphonate, di-sodium salt (Aredia™, Novartis AG, Switzerland), was added as a supplemental treatment to ^223Ra. Animals in the treatment groups were treated on day 7 after tumor cell inoculation with 10 or 30 kBq of ^223Ra. The following day, 1.5 mg/kg b.w. of Aredia™, was administered by i.v. injection. Animals in the control group received 5 mM sodium citrate solution on day 7 and 1.5 mg/kg b.w. of Aredia™ on day 8.
Symptom free animals were followed for at least 50 days after the treatment. The significance of treatment response was related to symptom free survival and evaluated using the Wilcoxon rank sum test.

[223Ra] [^223Ra, radium-223]
survival improvement compared to the control group (60 kBq ^223Ra, regimen A): not significant
symptom free survivors (60 kBq ^223Ra, regimen A (1/5)): 20%
symptom free survivors beyond 50 days (100 kBq/kg ^223Ra, regimen A (5/14)): 36%
increase in survival relative to the control (100 kBq/kg ^223Ra, regimen A): significant at the 1% level
increase in survival compared to the control group, groups taken together (100 kBq/kg and 300 kBq/kg ^223Ra groups taken together, regimen A, P <0.05): significant
increase in survival relative to the control (300 kBq/kg ^223Ra, regimen A): significant at the 1% level
Survival beyond 67 day (Without Aredia, 100 kBq/kg ^223Ra (regimen A)): 33%
Mean survival (Without Aredia, 100 kBq/kg ^223Ra i.v. day 7 after tumor cell inoculation (regimen A)): 38 days
Survival beyond 67 day [1]: 0%
Survival range [1]: 27-61
Mean survival (Without Aredia, 300 kBq/ka ^223Ra i.v. day 7 (regimen A)): 38 days

— patent US20040009955A1, “Method of prophylaxis” (priority 2002, published 2004)
